Source: PMC8213057, “Targeting ALK2: An Open Science Approach to Developing Therapeutics for the Treatment of Diffuse Intrinsic Pontine Glioma” (Journal of Medicinal Chemistry, 2020)

How the values were obtained:
LIMK1 = LIMK1 (Homo sapiens, UniProt P53667); details: 1 μM; Run 1, Run 2
MUSK = biological target: T1, MUSK (Homo sapiens, UniProt O15146); details: 1 μM; Run 1, Run 2
T1 sequence (O15146 24-869): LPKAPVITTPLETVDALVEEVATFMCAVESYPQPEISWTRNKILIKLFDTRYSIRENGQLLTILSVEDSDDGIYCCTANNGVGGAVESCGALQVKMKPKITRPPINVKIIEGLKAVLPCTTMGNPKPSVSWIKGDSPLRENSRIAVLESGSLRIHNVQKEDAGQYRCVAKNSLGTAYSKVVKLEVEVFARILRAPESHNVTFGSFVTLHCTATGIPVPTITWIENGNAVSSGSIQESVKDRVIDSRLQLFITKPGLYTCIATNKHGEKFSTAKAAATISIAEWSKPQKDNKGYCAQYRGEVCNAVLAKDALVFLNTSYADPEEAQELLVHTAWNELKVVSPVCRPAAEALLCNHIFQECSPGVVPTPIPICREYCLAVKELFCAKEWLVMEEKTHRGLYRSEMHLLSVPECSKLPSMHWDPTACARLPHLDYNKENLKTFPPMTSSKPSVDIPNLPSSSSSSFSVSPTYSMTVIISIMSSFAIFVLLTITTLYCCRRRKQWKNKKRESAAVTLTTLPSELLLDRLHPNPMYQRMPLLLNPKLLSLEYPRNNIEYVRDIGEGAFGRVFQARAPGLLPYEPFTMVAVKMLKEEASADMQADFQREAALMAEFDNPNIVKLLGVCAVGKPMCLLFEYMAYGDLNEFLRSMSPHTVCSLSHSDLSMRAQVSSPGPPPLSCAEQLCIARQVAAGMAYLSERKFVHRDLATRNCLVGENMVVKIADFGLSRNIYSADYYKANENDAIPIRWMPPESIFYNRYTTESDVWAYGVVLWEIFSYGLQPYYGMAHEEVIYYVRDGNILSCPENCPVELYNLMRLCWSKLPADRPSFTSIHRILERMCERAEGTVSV

PKCa = PKCa (Homo sapiens, UniProt P17252); details: 1 μM; Run 1, Run 2
PKCiota = biological target: T2, PKCiota (Homo sapiens, UniProt P41743); details: 1 μM; Run 1, Run 2
T2 sequence (P41743 1-596): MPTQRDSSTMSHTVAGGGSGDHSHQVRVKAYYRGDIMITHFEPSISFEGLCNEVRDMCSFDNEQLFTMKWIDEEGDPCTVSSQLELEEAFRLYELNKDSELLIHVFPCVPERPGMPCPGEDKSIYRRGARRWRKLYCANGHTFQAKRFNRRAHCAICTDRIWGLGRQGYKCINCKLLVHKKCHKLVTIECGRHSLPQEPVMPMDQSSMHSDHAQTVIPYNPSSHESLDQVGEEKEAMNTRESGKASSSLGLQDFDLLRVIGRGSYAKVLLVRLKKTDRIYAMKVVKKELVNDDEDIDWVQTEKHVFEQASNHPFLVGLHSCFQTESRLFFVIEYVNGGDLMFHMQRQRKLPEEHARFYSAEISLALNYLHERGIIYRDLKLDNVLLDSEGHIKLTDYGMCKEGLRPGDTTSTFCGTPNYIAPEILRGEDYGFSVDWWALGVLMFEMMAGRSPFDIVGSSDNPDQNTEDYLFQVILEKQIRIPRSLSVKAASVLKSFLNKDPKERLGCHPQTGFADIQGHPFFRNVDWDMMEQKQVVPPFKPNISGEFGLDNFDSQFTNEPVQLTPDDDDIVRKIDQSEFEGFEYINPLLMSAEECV

PLK1 = PLK1 (Homo sapiens, UniProt P53350); details: 1 μM; Run 1, Run 2
PLK1, sequence (P53350 whole entry): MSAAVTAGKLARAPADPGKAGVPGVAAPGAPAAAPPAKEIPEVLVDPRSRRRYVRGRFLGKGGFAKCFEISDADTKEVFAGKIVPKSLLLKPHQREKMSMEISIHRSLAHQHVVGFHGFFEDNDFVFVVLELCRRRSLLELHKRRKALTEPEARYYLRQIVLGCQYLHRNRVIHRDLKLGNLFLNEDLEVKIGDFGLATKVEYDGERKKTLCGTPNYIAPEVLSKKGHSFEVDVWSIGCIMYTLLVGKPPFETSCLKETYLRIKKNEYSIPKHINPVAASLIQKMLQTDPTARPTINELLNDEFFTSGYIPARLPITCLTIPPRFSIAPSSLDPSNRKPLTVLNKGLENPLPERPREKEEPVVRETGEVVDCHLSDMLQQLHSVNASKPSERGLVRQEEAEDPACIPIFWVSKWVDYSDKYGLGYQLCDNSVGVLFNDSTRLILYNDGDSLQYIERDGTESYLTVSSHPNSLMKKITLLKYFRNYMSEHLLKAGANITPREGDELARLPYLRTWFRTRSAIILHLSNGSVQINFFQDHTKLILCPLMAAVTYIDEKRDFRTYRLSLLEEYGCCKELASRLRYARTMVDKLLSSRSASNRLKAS

DCAMKL2 = biological target: T3, DCAMKL2 (Homo sapiens, UniProt Q8N568); test: biochemical; details: read-out: % enzyme activity, 1 μM; Run 1, Run 2
T3 sequence (Q8N568 1-766): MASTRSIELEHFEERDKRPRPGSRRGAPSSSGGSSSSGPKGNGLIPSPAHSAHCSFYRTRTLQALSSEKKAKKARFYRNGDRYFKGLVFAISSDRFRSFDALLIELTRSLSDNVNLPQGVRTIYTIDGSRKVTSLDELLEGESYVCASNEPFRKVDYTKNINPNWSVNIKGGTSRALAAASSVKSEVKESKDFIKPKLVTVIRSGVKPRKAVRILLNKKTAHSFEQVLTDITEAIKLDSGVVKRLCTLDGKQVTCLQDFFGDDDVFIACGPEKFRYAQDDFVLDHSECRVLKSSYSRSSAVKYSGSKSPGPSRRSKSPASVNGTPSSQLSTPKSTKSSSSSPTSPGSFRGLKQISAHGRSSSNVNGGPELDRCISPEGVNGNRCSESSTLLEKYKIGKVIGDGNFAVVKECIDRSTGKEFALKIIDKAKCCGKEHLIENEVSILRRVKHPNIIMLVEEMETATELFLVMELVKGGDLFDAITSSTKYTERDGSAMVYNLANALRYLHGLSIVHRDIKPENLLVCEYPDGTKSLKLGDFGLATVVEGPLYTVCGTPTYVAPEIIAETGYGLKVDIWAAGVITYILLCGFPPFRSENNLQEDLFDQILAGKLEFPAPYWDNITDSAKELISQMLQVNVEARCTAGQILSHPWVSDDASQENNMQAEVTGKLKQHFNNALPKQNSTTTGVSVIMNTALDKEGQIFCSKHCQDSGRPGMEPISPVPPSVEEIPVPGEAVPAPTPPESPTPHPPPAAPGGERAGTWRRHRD

PHKg1 = PHKg1 (Homo sapiens, UniProt Q16816); test: biochemical; details: read-out: % enzyme activity, 1 μM; Run 1, Run 2
PHKg1, sequence (Q16816 whole entry): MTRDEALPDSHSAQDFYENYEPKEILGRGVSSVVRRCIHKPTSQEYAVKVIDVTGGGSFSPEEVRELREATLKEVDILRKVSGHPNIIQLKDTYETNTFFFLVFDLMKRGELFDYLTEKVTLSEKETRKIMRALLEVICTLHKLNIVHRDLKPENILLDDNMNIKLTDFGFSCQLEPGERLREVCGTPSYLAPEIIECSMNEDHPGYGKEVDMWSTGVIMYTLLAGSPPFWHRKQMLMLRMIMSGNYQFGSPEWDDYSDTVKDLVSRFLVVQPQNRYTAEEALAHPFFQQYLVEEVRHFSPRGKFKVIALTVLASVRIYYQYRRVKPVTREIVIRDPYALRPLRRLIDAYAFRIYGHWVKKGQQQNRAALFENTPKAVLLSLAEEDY

RIPK3 = RIPK3 (Homo sapiens, UniProt Q9Y572); test: biochemical; details: read-out: % enzyme activity, 1 μM; Run 1, Run 2
RIPK3, sequence (Q9Y572 whole entry): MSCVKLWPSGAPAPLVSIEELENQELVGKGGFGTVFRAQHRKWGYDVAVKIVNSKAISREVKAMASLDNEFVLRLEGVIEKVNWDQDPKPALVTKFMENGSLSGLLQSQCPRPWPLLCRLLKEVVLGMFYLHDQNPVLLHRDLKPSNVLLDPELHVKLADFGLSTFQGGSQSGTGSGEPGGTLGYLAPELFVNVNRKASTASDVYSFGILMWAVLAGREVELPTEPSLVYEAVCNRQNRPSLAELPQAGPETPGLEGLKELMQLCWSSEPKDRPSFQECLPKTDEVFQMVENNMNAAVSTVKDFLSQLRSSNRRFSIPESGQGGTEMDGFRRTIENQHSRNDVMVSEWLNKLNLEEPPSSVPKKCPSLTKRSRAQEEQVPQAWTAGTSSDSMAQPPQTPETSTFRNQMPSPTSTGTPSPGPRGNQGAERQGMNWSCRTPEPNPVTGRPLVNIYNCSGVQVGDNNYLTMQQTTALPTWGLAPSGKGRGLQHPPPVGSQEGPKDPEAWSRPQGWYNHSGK

WNK3 = WNK3 (Homo sapiens, UniProt Q9BYP7); test: biochemical; details: read-out: % enzyme activity, 1 μM; Run 1, Run 2
WNK3, sequence (Q9BYP7 whole entry, species assumed): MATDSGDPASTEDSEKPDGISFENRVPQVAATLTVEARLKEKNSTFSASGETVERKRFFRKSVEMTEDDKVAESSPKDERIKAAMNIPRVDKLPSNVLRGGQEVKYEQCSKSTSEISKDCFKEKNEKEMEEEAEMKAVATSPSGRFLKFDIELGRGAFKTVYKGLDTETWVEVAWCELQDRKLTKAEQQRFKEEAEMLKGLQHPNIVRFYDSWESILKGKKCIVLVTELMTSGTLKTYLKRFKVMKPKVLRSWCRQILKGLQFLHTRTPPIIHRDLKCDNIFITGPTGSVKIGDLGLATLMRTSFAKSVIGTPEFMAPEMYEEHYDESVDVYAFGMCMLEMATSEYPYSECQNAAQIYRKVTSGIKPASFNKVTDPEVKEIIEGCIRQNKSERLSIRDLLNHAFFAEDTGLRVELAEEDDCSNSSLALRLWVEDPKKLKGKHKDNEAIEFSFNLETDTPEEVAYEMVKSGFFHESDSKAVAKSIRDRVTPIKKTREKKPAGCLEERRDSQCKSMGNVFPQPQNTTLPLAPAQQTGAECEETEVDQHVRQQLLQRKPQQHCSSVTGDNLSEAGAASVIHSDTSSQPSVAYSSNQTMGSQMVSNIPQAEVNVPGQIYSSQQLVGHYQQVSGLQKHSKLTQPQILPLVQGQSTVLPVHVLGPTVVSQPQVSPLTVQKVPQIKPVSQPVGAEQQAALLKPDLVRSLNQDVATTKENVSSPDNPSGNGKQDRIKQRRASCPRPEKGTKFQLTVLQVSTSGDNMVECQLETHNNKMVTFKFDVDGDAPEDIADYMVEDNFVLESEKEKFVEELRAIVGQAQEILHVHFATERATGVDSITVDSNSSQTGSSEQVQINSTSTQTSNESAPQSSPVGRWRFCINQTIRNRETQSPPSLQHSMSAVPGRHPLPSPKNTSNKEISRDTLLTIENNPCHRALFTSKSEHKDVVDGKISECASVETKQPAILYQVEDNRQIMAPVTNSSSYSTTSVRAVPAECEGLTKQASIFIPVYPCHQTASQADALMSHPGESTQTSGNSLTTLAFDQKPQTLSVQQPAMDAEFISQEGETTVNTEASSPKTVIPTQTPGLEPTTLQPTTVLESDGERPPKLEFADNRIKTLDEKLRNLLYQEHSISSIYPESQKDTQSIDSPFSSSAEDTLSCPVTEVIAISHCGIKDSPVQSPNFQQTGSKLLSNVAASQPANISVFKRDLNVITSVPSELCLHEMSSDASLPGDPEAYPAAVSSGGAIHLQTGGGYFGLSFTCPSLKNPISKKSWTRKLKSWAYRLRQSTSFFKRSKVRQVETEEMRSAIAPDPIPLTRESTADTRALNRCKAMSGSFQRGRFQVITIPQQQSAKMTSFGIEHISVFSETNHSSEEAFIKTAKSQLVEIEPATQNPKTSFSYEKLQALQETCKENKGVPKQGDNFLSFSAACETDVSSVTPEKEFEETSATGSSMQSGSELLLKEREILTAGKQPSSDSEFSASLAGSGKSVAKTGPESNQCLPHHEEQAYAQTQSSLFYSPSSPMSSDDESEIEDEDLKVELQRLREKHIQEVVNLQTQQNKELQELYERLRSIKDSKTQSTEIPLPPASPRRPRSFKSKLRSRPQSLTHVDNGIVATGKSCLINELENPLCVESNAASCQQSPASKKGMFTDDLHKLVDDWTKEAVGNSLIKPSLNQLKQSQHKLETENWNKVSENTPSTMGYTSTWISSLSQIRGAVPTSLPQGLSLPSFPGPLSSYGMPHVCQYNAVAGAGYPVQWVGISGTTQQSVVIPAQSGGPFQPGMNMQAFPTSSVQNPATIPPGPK

LIMK1, sequence (P53667 whole entry): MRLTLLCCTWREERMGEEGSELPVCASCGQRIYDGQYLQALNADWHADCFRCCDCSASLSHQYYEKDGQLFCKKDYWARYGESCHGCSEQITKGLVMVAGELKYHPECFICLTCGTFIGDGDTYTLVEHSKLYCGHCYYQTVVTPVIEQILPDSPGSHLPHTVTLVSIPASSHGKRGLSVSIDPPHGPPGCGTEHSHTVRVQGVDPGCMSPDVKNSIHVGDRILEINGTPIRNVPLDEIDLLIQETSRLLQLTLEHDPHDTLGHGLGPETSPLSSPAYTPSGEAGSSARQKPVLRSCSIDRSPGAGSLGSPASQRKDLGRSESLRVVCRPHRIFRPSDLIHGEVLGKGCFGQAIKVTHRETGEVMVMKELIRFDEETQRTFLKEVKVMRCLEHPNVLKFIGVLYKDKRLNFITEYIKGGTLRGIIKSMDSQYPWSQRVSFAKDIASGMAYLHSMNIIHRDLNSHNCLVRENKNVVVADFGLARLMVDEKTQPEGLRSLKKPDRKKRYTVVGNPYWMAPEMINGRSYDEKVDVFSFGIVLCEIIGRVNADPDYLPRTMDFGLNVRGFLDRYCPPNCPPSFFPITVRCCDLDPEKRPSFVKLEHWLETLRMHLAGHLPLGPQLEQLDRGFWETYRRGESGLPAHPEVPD

| SMILES | % enzyme activity (LIMK1) | % enzyme activity (MUSK) | % enzyme activity (PKCa) | % enzyme activity (PKCiota) | % enzyme activity (PLK1) | remaining activity at 1 µM (DCAMKL2) | remaining activity at 1 µM (PHKg1) | remaining activity at 1 µM (RIPK3) | remaining activity at 1 µM (WNK3) |
| --- | --- | --- | --- | --- | --- | --- | --- | --- | --- |
| COc1cc(-c2cncc(-c3ccc(N4CCN(C)CC4)cc3)c2C)cc(F)c1C(N)=O [Compound 26a, 2-Fluoro-6-methoxy-4-(4-methyl-5-(4-(4-methylpiperazin-1-yl)phenyl)pyridin-3-yl)benzamide] | 64.18% | 91.48% | 89.62% | 100.36% | 91.24% | 64.4% | 85.6% | 106% | 89.6% |
| COc1cc(-c2cncc(-c3ccc(N4C[C@@H](C)N(C)[C@@H](C)C4)cc3)c2C)cc(F)c1C(N)=O [Compound 26c, 2-Fluoro-6-methoxy-4-(4-methyl-5-(4-((3R,5S)-3,4,5-trimethylpiperazin-1-yl)phenyl)pyridin-3-yl)benzamide] | 72.63% | 90.22% | 89.76% | 98.91% | 92.70% | 84.5% | 97% | 104% | 93.8% |
